From the supplement of paper PMC5908809

Key:
[1] = test system: SNK-6 (IL-2 2.5 ng/mL); assay: drug sensitivity score (DSS) (DSS units); higher = more sensitive; extreme values may be limits of the assay; settings: 72 h
[2] = test system: NK-92 (IL-2 2.5 ng/mL); assay: as above; settings: 72 h
[3] = test system: normal primary NK cells, pool 3 (3 donors) (IL-2 2.5 ng/mL); assay: as above; settings: 72 h
[4] = test system: normal primary NK cells, pool 1 (3 donors) (IL-2 2.5 ng/mL); assay: as above; settings: 72 h
[5] = test system: NK-YS (IL-2 2.5 ng/mL); assay: as above; settings: 72 h
[6] = test system: IMC-1 (IL-2 20 ng/mL); assay: as above; settings: 72 h
[7] = test system: YT (IL-2 2.5 ng/mL); assay: as above; settings: 72 h
[8] = test system: NKL (IL-2 2.5 ng/mL); assay: as above; settings: 72 h
[9] = test system: DERL-7 (IL-2 2.5 ng/mL); assay: as above; settings: 72 h
[10] = test system: normal primary NK cells, pool 1 (3 donors), resting (IL-2 0 ng/mL); assay: as above; settings: 72 h
[11] = test system: KAI3 (IL-2 2.5 ng/mL); assay: as above; settings: 72 h
[12] = test system: normal primary NK cells, pool 2 (3 donors) (IL-2 2.5 ng/mL); assay: as above; settings: 72 h
[13] = test system: KHYG-1 (IL-2 2.5 ng/mL); assay: as above; settings: 72 h
[14] = test system: normal NK cells expanded with K562-aAPC; assay: as above; settings: 72 h; IL-2 2.5 ng/mL
Procedure: (§1)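 Drug sensitivity and resistance testing on K562-aAPC-expanded normal NK cells: 5 concentrations (10-fold steps over a 10,000-fold range), 72 h at 37 °C, viability by CellTiter-Glo normalised to DMSO and benzethonium chloride controls; DSS from the fitted curve.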

[15] = test system: SNK-6 (IL-2 2.5 ng/mL); assay: percent inhibition of viability; higher = more inhibition; settings: 72 h
[16] = test system: NK-92 (IL-2 2.5 ng/mL); assay: as above; settings: 72 h
[17] = test system: normal primary NK cells, pool 3 (3 donors) (IL-2 2.5 ng/mL); assay: as above; settings: 72 h
[18] = test system: normal primary NK cells, pool 1 (3 donors) (IL-2 2.5 ng/mL); assay: as above; settings: 72 h
[19] = test system: NK-YS (IL-2 2.5 ng/mL); assay: as above; settings: 72 h
[20] = test system: IMC-1 (IL-2 20 ng/mL); assay: as above; settings: 72 h
[21] = test system: YT (IL-2 2.5 ng/mL); assay: as above; settings: 72 h
[22] = test system: NKL (IL-2 2.5 ng/mL); assay: as above; settings: 72 h
[23] = test system: DERL-7 (IL-2 2.5 ng/mL); assay: as above; settings: 72 h
[24] = test system: normal primary NK cells, pool 1 (3 donors), resting (IL-2 0 ng/mL); assay: as above; settings: 72 h
[25] = test system: KAI3 (IL-2 2.5 ng/mL); assay: as above; settings: 72 h
[26] = test system: normal primary NK cells, pool 2 (3 donors) (IL-2 2.5 ng/mL); assay: as above; settings: 72 h
[27] = test system: KHYG-1 (IL-2 2.5 ng/mL); assay: as above; settings: 72 h
[28] = test system: normal NK cells expanded with K562-aAPC; assay: as above; settings: 72 h, IL-2 2.5 ng/mL
Procedure: as §1

CCCCCOC(=O)Nc1nc(=O)n([C@@H]2O[C@H](C)[C@@H](O)[C@H]2O)cc1F [Capecitabine] (max concentration tested 10000 nM)
Settings	drug sensitivity score
[1]	6.62
[2]	0
[3]	0
[4]	0
[5]	1.92
[6]	0
[7]	2.47
[8]	0
[9]	3.42
[10]	1.76
[11]	4.96
[12]	0
[13]	0
[14]	0

percent inhibition of viability [%]
Settings	1 nM	10 nM	100 nM	1000 nM	10000 nM
[15]	12	11.5	0.05	16.4	72.5
[16]	-10.2	1.4	2.48	-3.88	10.2
[17]	0.26	5.64	1.92	7.05	2.46
[18]	-11.1	-11.6	0.78	-4.13	-5.4
[19]	-5.86	-8.43	-2.42	-0.04	39
[20]	-3.3	-4.34	-6.24	-6.22	-8.14
[21]	-3.7	-7.15	-2.55	-0.84	48.6
[22]	-14.2	-5.91	-4.8	5.16	-0.14
[23]	0.46	4.42	-2.34	4.15	52.2
[24]	-8.89	-7.83	13.7	10.2	11
[25]	1.53	10.3	11	18.4	51.4
[26]	-2.47	1.21	-0.29	-0.41	-2.27
[27]	-4.65	-8.98	-2.6	-4.39	-2.75
[28]	-1.3	3.24	-1.87	-1.09	-2.22

CC(C)C[C@H](NC(=O)[C@H](CCc1ccccc1)NC(=O)CN1CCOCC1)C(=O)N[C@@H](Cc1ccccc1)C(=O)N[C@@H](CC(C)C)C(=O)[C@@]1(C)CO1 [Carfilzomib] (max concentration tested 1000 nM)
Settings	drug sensitivity score
[1]	31.1
[2]	33.1
[3]	31.4
[4]	34
[5]	30.9
[6]	30.3
[7]	30.6
[8]	29.9
[9]	37.2
[10]	34.1
[11]	34.8
[12]	33.4
[13]	30.9
[14]	29.7

percent inhibition of viability [%]
Settings	0.1 nM	1 nM	10 nM	100 nM	1000 nM
[15]	-4.32	5.11	99.5	101	101
[16]	1.15	15.4	101	106	106
[17]	-8.33	11.5	94.8	100	101
[18]	-1.09	26.1	97.9	99.6	99.8
[19]	-4.19	3.04	101	104	105
[20]	-4.55	-1.82	100	101	101
[21]	-5.39	1.26	100	105	105
[22]	-2.93	-11	102	106	108
[23]	0.47	55.2	101	101	101
[24]	-8.37	33.8	94	98.4	98.3
[25]	-4.59	28.8	101	105	107
[26]	-2.72	22.8	97.1	99.5	99.7
[27]	-8.88	2.3	101	105	105
[28]	-5.98	-4.15	96.8	101	101
